Measurements from US20260266848A1, “COMPOSITIONS AND METHODS FOR DIAGNOSING AND TREATING DYSTONIA” (Duke University, priority 2023, published 2026).

Legend:
DYT-TOR1A MEF EVs = assay: Quantitative LC-MS/MS proteomics of EVs from drug-treated DYT-TOR1A MEF cultures (ritonavir, salubrinal); type: cell-based, mouse; parameters: key to RTV Corrective Direction / RTV Corrective Direction, Grwd1 / RTV Corrective Direction, Srrm2 / RTV Corrective Direction, Rbm17 / RTV Corrective Direction, Dcaf8 / RTV Corrective Direction, Edil3 / RTV Corrective Direction, Timp3 / RTV Corrective Direction, Heatr3 / RTV Corrective Direction, Brd4 / RTV Corrective Direction, P3h4 / RTV Corrective Direction, Pacsin3 / RTV Corrective Direction, Naa50 / RTV Corrective Direction, Lpar6 / RTV Corrective Direction, Ndrg1 / RTV Corrective Direction, Kntc1 / RTV Corrective Direction, Cdk11b / RTV Corrective Direction, Sumo1 / RTV Corrective Direction, Lsm4 / RTV Corrective Direction, Hmga2 / RTV Corrective Direction, Cstf1 / RTV Corrective Direction, Tes / RTV Corrective Direction, Sbno1 / RTV Corrective Direction, Unc119b / RTV Corrective Direction, Cfdp1 / RTV Corrective Direction, Sec61b: YES = protein abundance effect opposite to DYT/WT; settings: EV protein abundance; for RTV Corrective Direction: DYT + RTV (ritonavir) vs DYT, direction compared with DYT/WT; for DYT + RTV/DYT Cohen's d: ritonavir (RTV)-treated DYT vs DYT
WT MEF EVs = assay: Quantitative LC-MS/MS proteomics of EVs from ISRIB-treated WT MEF cultures; type: cell-based, mouse; parameters: key to ISRIB and DYT Parallel Direction / ISRIB and DYT Parallel Direction, Ctdsp1 / ISRIB and DYT Parallel Direction, Pcdh19 / ISRIB and DYT Parallel Direction, Tspan7 / ISRIB and DYT Parallel Direction, Myo1e / ISRIB and DYT Parallel Direction, Plpp3 / ISRIB and DYT Parallel Direction, Sh3bp4 / ISRIB and DYT Parallel Direction, Dnajc7 / ISRIB and DYT Parallel Direction, Drg1 / ISRIB and DYT Parallel Direction, Maea: YES = protein abundance effect similar to DYT/WT; settings: EV protein abundance; for WT + ISRIB/WT Cohen's d: ISRIB-treated WT vs WT; for ISRIB and DYT Parallel Direction: WT + ISRIB vs WT, direction compared with DYT/WT

| Substance | RTV Corrective Direction (DYT-TOR1A MEF EVs) | DYT + RTV/DYT Cohen's d (DYT-TOR1A MEF EVs) | WT + ISRIB/WT Cohen's d (WT MEF EVs) | ISRIB and DYT Parallel Direction (WT MEF EVs) |
| --- | --- | --- | --- | --- |
| Cnot1 | YES | 5.54 | −2.56 | YES |
| Col5a1 | YES | −0.89 | 0.06 | YES |
